Patent US6323365A (Yissum Research Development Company of the Hebrew …, priority 2000, dated 2001)

Key:
seizure threshold = assay: subcutaneous metrazol (sc Met) test; settings: Rattus norvegicus, po, read-out: sc Met anticonvulsant activity (ED50)
seizure spread = assay: maximal electroshock (MES) test; settings: for ED50: Rattus norvegicus, po, read-out: MES anticonvulsant activity (ED50)
in vivo = settings: rat, po
offspring = settings: cited from earlier work

Structure (SMILES)	ED50 (seizure threshold)	potency in MES test relative to VPA (seizure spread; MES test, vs VPA)	ED50 (seizure spread)	PI-MES (protective index): TD50/ED50 (seizure spread; oral, rats, MES)	TD50 (in vivo)	potency in MES test relative to (R)-HP-VPD (seizure spread; MES test, vs (R)-HP-VPD (II))	SI (stereoselective index) = (R)-HP-VPD/(S)-HP-VPD (seizure spread; MES, oral, rats)	teratogenicity (offspring)
CCCC(CCC)C(=O)NCC(C)O (racemic) [HP-VPD (rac)]	> 250 mg/kg	five times more potent than VPA	92 mg/kg	> 2.7	> 250 mg/kg	–	–	–
CCCC(CCC)C(=O)NC[C@@H](C)O [(R)-HP-VPD, N-(2-OH-propyl)valpromide]	–	–	117 mg/kg	> 4.3	> 500 mg/kg	–	–	–
CCCC(CCC)C(=O)NC[C@H](C)O [(S)-HP-VPD, N-(2-OH-propyl)valpromide]	–	–	48 mg/kg	> 13.5	> 650 mg/kg	more than two times more potent than (R)-HP-VPD	2.4	–
CCCC(CCC)C(=O)O [VPA, Valproic acid, reference compound]	180 mg/kg	–	490 mg/kg	–	–	–	–	associated with teragenecity
